This note sets out measurements from the OligoGym collection.

In this data set the target is APOL1. The conditions noted are these: ASO.

“And” between values parts separate entries of the source, which are not always exact repeats. Equal entries are not always repeated. After the bases stand the sugars from the 5' end (letter, count) and the backbone: PS all phosphorothioate, else s phosphorothioate and o phosphodiester by linkage. Methylation of C is not given here. e = 2'-O-(2-methoxyethyl) (MOE); k = constrained ethyl (cEt); d = 2'-deoxy (DNA)

As to TAGTGCTATAGAGGGA (sugars k3 d10 k3, PS), the target mRNA inhibition (A431, 0.0625 µM) was 57%; the target mRNA inhibition (A431, 0.25 µM) amounted to 86%; the target mRNA inhibition (A431, 1 µM) was determined as 95%.

Where the note is “A431, 2 µM”, “GAATTATGGAATTGCA (sugars kkddddkekekkdddd, PS)” returned a target mRNA inhibition of 61%. On the same count and under the same terms, the same measure for “GGGTTATGAAATTATT (sugars kkkddddkekekdddd, PS)”: 73%. Still for that read-out and setting: the same measure for “GGGTTATGAAATTATT (sugars k2 d4 e3 k2 d5, PS)”: 77%. As for “GGCAGTTTTGTAAGTG (sugars kkkddddkekekdddd, PS)”, the target mRNA inhibition (A431, 2 µM) was determined as 32%. As for “CTTTATACCAGTGTCT (sugars kekddddeekkddddd, PS)”, the target mRNA inhibition (A431, 0.0156 µM) worked out at 22%; the target mRNA inhibition (A431, 0.0625 µM) worked out at 41%; the target mRNA inhibition (A431, 0.25 µM) was 69%; the target mRNA inhibition (A431, 1 µM) was found to be 89%; the target mRNA inhibition (A431, 2 µM) was 95%. “GCAGTTTTGTAAGTGC (sugars kkkddddkekeddddd, PS)” yielded a target mRNA inhibition (A431, 2 µM) of 60%. In the case of TAATGTCTCAAACTCC (sugars k4 d9 k3, PS), the target mRNA inhibition is, setting by setting: (A431, 0.0625 µM) 24%; (A431, 0.25 µM) 50%; (A431, 1 µM) 80%. In the case of “GTTTTGTAAGTGCAAC (sugars kkddddkekekkdddd, PS)”, the target mRNA inhibition (A431, 2 µM) is 62%. The same measure, in the same setting: the same measure for “CAACACATCATTGGGT (sugars kkddddkekekddddd, PS)”: 43%. For the sequence “GTATTTCTTGATGTGG (sugars k2 d4 e3 k2 d5, PS)”, the target mRNA inhibition (A431, 2 µM) was 97%. The same measure, in the same setting: the same measure for “GCAGTTTTGTAAGTGC (sugars k2 d4 e3 k2 d5, PS)”: 79%.

For “AGTTTTGTAAGTGCAA (sugars kkdddddkekeddddd, PS)”, under “A431, 2 µM”, the target mRNA inhibition is 92%. Take “TTTGTAAGTGCAACCA (sugars kkddddekekeddddd, PS)”: the target mRNA inhibition came to 29% (A431, 0.0156 µM); 59% (A431, 0.0625 µM); 83% (A431, 0.25 µM); 96% (A431, 1 µM); 97% (A431, 2 µM). Sequence “TAATTCTATTAGAGGG (sugars k2 d4 e3 k2 d5, PS)” yielded a target mRNA inhibition (A431, 2 µM) of 59%. The same measure, in the same setting: the same measure for “ATTCAGAATTTCCACT (sugars kkddddkekekddddd, PS)”: 76%.

Take “GTTCTAACTCTTGGGC (sugars kkdddddkekeddddd, PS)”: the target mRNA inhibition (A431, 2 µM) was 84%. In the case of “ATGCTAATTTTCTGAC (sugars kkddddekekeddddd, PS)”, for the setting “A431, 2 µM”, the target mRNA inhibition amounted to 95%.

Turning to TGGGCGAGCGATTGTC (sugars k4 d9 k3, PS), the target mRNA inhibition reads like this: (A431, 0.0625 µM) 42%; (A431, 0.25 µM) 70%; (A431, 1 µM) 83%. On the same counts, the results for TGAACGCAATGCTGAC (sugars k4 d9 k3, PS) are 32%, 74% and 90%. Take TCAGTCAGCAGGAGTA (sugars k4 d9 k3, PS): the target mRNA inhibition reads like this: (A431, 0.0625 µM) 55%; (A431, 0.25 µM) 69%; (A431, 1 µM) 70%. On the same counts, the results for CGTTCCAGGCCTCATT (sugars k4 d9 k3, PS) are 40%, 60% and 82%.

In turn, “CTTTAAACTCAGGTGA (sugars kkddddkekekkdddd, PS)” had a target mRNA inhibition (A431, 2 µM) of 70%. Still for that read-out and setting: the result for “ATCAGATGGGTACTTC (sugars kddddkekekeddddd, PS)” reads 43%.

As for “AGCTTTAAACTCAGGT (sugars kkddddkekekkdddd, PS)”, the target mRNA inhibition (A431, 2 µM) worked out at 16%. On the same count and under the same terms, the result for “ACACATCATTGGGTTA (sugars kkddddkekekkdddd, PS)” reads 20%; that for “TTATGAAATTATTGGT (sugars k2 d4 e3 k2 d5, PS)”, 39%. For the sequence “CACTTTACATGCACGA (sugars kkdddddddddkekek, PS)”, the target mRNA inhibition runs as follows: (A431, 0.0156 µM) 21%; (A431, 0.0625 µM) 38%; (A431, 0.25 µM) 69%; (A431, 1 µM) 89%.

As for “GTTATATTTGATCCTC (sugars kkkddddkdkdkdddd, PS)”, the target mRNA inhibition (A431, 2 µM) stood at 92%. Still for that read-out and setting: the result for “GAATTATGGAATTGCA (sugars kkddddekekeddddd, PS)” reads 95%. In the case of ACTCAAGTCAGTACAG (sugars k4 d9 k3, PS), the target mRNA inhibition is, setting by setting: (A431, 0.0625 µM) 27%; (A431, 0.25 µM) 58%; (A431, 1 µM) 77%. In turn, “TTTGTAAGTGCAACCA (sugars kkkddddkekeddddd, PS)” registered a target mRNA inhibition (A431, 2 µM) of 49%. Same read-out and setting: the same measure for “TGTATTTCTTGATGTG (sugars kkkddddkekeddddd, PS)”: 71%. On the same count and under the same terms, the same measure for “ATTCTATTAGAGGGCT (sugars k3 d4 k3 e1 d5, PS)”: 85%.

Turning to “GTGTATTTCTTGATGT (sugars kkddddekekeddddd, PS)”, the target mRNA inhibition is, setting by setting: (A431, 0.0156 µM) 36%; (A431, 0.0625 µM) 65%; (A431, 0.25 µM) 83%; (A431, 1 µM) 92%; (A431, 2 µM) 94%. Under “A431, 2 µM”, “CTAATTTTCTGACTGT (sugars kkkddddkekekdddd, PS)” yielded a target mRNA inhibition of 90%. “TGTTATATTTGATCCT (sugars kkkddddkekeddddd, PS)” yielded a target mRNA inhibition (A431, 2 µM) of 71%. The sequence “GCTTTAAACTCAGGTG (sugars kdddddkekekddddd, PS)” registered a target mRNA inhibition (A431, 2 µM) of 92%. The same measure, in the same setting: the same measure for “ACACATCATTGGGTTA (sugars kkkddddkdkdkdddd, PS)”: 48%; for “GTTCAAAAGCAGCATT (sugars kkdddddkekeddddd, PS)”: 89%; for “ATATCAGATGGGTACT (sugars kkddddekekeddddd, PS)”: 27%.

On to “CAGTTTTGTAAGTGCA (sugars kkkddddkekekdddd, PS)”, for which the target mRNA inhibition (A431, 2 µM) came to 87%. In the case of “TCCGTCAATATATTCT (sugars kkddddekekeddddd, PS)”, the target mRNA inhibition (A431, 0.0156 µM) stood at 33%; the target mRNA inhibition (A431, 0.04 µM) stood at 50%; the target mRNA inhibition (A431, 0.0625 µM) came out at 61%; the target mRNA inhibition (A431, 0.25 µM) stood at 86%; the target mRNA inhibition (A431, 1 µM) came to 96%; the target mRNA inhibition (A431, 2 µM) was 97%. Consider “CAGTTTTGTAAGTGCA (sugars kddddkekekeddddd, PS)”, for which the target mRNA inhibition (A431, 2 µM) came out at 48%. Still for that read-out and setting: the result for “ATTCTCATGGTACAGG (sugars kkddddkekekddddd, PS)” reads 76%. As for “GTGTTATATTTGATCC (sugars k3 d4 k3 e1 d5, PS)”, the target mRNA inhibition stood at 32% (A431, 0.0156 µM); 50% (A431, 0.04 µM); 63% (A431, 0.0625 µM); 84% (A431, 0.25 µM); 91% (A431, 1 µM); 94% (A431, 2 µM). With “AATTCTATTAGAGGGC (sugars kkddddekekeddddd, PS)”, the target mRNA inhibition (A431, 2 µM) is 79%.

For the sequence TCTGTTAGATACAAAC (sugars k4 d9 k3, PS), the target mRNA inhibition is 34% (A431, 0.0625 µM); 63% (A431, 0.25 µM); 78% (A431, 1 µM).

“GAGTATTGTTTTTGTG (sugars k3 d5 k3 d5, PS)”: the target mRNA inhibition is 37% (A431, 0.0156 µM); 74% and 66% (A431, 0.0625 µM); 91% and 88% (A431, 0.25 µM); 95% and 94% (A431, 1 µM); 93% and 94% (A431, 2 µM). Under “A431, 2 µM”, “TTGTAAGTGCAACCAA (sugars k2 d4 e4 k2 d4, PS)” showed a target mRNA inhibition of 70%. As for “TATTCTCATGGTACAG (sugars k3 d4 k3 e1 d5, PS)”, under “A431, 2 µM”, the target mRNA inhibition was 79%.

Regarding “CGTCAATATATTCTTT (sugars kkkddddkdkdkdddd, PS)”, the target mRNA inhibition (A431, 0.0156 µM) was 23%; the target mRNA inhibition (A431, 0.0625 µM) was 61%; the target mRNA inhibition (A431, 0.25 µM) was found to be 84%; the target mRNA inhibition (A431, 1 µM) turned out to be 93%; the target mRNA inhibition (A431, 2 µM) stood at 95%. As for GGGAAATGAACGCAAT (sugars k4 d9 k3, PS), the target mRNA inhibition by setting is: (A431, 0.0625 µM) 22%; (A431, 0.25 µM) 60%; (A431, 1 µM) 83%. Sequence “CAGATGGGTACTTCTG (sugars kddddkekekeddddd, PS)” yielded a target mRNA inhibition (A431, 2 µM) of 23%. Still for that read-out and setting: the same measure for “AGCTTTAAACTCAGGT (sugars kddddkekekeddddd, PS)”: 52%. On to “GTTATGAAATTATTGG (sugars kkkddddkekeddddd, PS)”, for which the target mRNA inhibition was found to be 9% (A431, 0.0156 µM); 42% (A431, 0.0625 µM); 75% (A431, 0.25 µM); 85% (A431, 1 µM); 93% (A431, 2 µM). Turning to “TATTTCTTGATGTGGT (sugars k2 d4 e4 k2 d4, PS)”, the target mRNA inhibition (A431, 2 µM) came to 96%.

“GTATTGCCAGCTAAGG (sugars kkddddkekekkdddd, PS)” came in with a target mRNA inhibition (A431, 2 µM) of 74%. For “TTCTCATGGTACAGGA (sugars kkdddddkekeddddd, PS)”, the target mRNA inhibition (A431, 2 µM) came to 78%. The same measure, in the same setting: the result for “ACATCATTGGGTTATG (sugars kdddddkekekddddd, PS)” reads 89%. Same read-out and setting: the result for “ATTCAGAATTTCCACT (sugars kkkddddkekekdddd, PS)” reads 56%. With “CGTCAATATATTCTTT (sugars kkddddkekekddddd, PS)”, the target mRNA inhibition was 20% (A431, 0.0156 µM); 41% (A431, 0.0625 µM); 75% (A431, 0.25 µM); 90% (A431, 1 µM); 94% (A431, 2 µM).

The sequence “GCAATGCTGACTTGGC (sugars kddddkekekeddddd, PS)” came in with a target mRNA inhibition (A431, 2 µM) of 45%. The sequence “GTATTTCTTGATGTGG (sugars kkddddkekekddddd, PS)” registered a target mRNA inhibition (A431, 2 µM) of 75%. On the same count and under the same terms, the result for “TTTATACCAGTGTCTT (sugars kkdddddkekeddddd, PS)” reads 84%; that for “GTTATGAAATTATTGG (sugars kkdddddkekeddddd, PS)”, 68%.

Regarding “TTCTATTAGAGGGCTA (sugars k2 d4 e4 k2 d4, PS)”, the target mRNA inhibition (A431, 2 µM) is 76%.
